The text below walks through data of patent publication US20260234115A1, “LIPID COMPOUNDS, COMPOSITIONS, AND USES THEREOF” (Liberate Bio, Inc., priority 2023, published 2026).

For the experiment, the system named is mouse organs. Put plainly: In vivo activity screening in mice: organ mean total flux (p/s) of luciferase activity after injection of F2 LNP pools (Table 6, FIG. 7A-7C). To be noted: luciferase mRNA. On the procedure:
Small rodent biodistribution studies were performed in mice (e.g., C57BL/6J, Balb-c, CD-1, etc.). For evaluating LNP biodistribution and tissue activity upon systemic administration, C57BL/6J mice received dose administration by single intravenous injection via tail vein with LNP formulations (individual or pooled) in PBS, at different dose (0.25-3 mg/kg) levels of firefly luciferase mRNA. At predetermined time points (4-6 hours post-injection), the animals were anesthetized via isoflurane and subjected to in-life imaging sessions for bioluminescence using an In Vivo Imaging System (IVIS). All animals were dosed with D-Luciferin at 15 mg/mL via subcutaneous (SC) injection at 0.2 mL/animal. Animals had their abdomen hair shaved using an animal trimmer. They were then placed so their shaved belly faced up toward the IVIS camera. Whole body imaging sessions were performed 10-15 minutes following D-Luciferin administration.
For in detail organ distribution and activity of LNP formulations, ex vivo imaging sessions were also performed. All animals received SC D-Luciferin and were then euthanized by isoflurane overdose, followed by cardiac perfusion with saline. Following perfusion, the organs were collected and subjected to IVIS imaging for luminescence within 10-15 minutes of D-Luciferin injection.
All IVIS images were processed with a computer software to identify the regions of interests for individual organs to detect the total flux (p/s) values as luminescence quantification. Then the total flux values were graphed to evaluate the in vivo activity in each collected organ.
Small rodent biodistribution studies were performed in mice according to the General Study Protocols in Example 3(a). LNPs incorporating lipid compounds were prepared in Formulation F2, with MC3 as lipid compound (Cayman Chemical) prepared using Formulation F2 for comparison. LNP pools (with firefly luciferase mRNA encapsulated) were injected into mice at varying doses, and organ mean total flux (p/s) results (measuring luciferase activity) were then collected according to Example 3(a).
LNPs comprising MC3 used as a control and for cross-mouse comparison. Dose is in mg/kg; LC is Lipid Compound according to Table 1.
Additional screening results for Compounds 7, 13, 14, 26, 33, 38, 39, 40, 48, 60, 61, 89, 103, and 109 in spleen, femur, and muscle are shown in FIG. 7A, FIG. 7B, and FIG. 7C, with MC3 as a used as a control for comparison.

Marks after values point to notes of the source that are not given here.

Turning to `CCCC/C=C\CCOC(=O)CCCCCC(=O)OCC(COC(=O)CCCCCC(=O)OCC/C=C\CCCC)(COC(=O)CCCCCC(=O)OCC/C=C\CCCC)COC(=O)CCC(CCCCCC)OC(=O)NCCN1CCCC1` (stereo not drawn) [Compound 44, O7-[2,2-bis[[7-[(Z)-oct-3-enoxy]-7-oxo-heptanoyl]oxymethyl]-3-[4-(2-pyrrolidin-1-ylethylcarbamoyloxy)decanoyloxy]propyl]O1-[(Z)-oct-3-enyl]heptanedioate], where the note is “Mouse 11, dose 0.5 mg/kg”, the “Organ Mean Total Flux Femur” value was 5.6 p/s (×10^6), the “Organ Mean Total Flux Heart” value is on record as 0.7 p/s (×10^6), the “Organ Mean Total Flux Kidney” value was 1.3 p/s (×10^6) and the “Organ Mean Total Flux Liver” value is on record as 415.7 p/s (×10^6). Further, for the setting “Mouse 11, dose 0.5 mg/kg”, the “Organ Mean Total Flux Lung” value was 6.5 p/s (×10^6), the “Organ Mean Total Flux Muscle” value is 22.6 p/s (×10^6), the “Organ Mean Total Flux Pancreas” value is recorded as 3.1 p/s (×10^6) and the “Organ Mean Total Flux Spleen” value was 36.0 p/s (×10^6).
Turning to `CCCCCCCCCOC(=O)CCCCCC(=O)OCC(COC(=O)CCCCCC(=O)OCCCCCCCCC)(COC(=O)CCCCCC(=O)OCCCCCCCCC)COC(=O)CCC(CCCCCC)OC(=O)NCCN1CCCC1` (stereo not drawn) [Compound 24, O7-[2,2-bis[(7-nonoxy-7-oxo-heptanoyl)oxymethyl]-3-[4-(2-pyrrolidin-1-ylethylcarbamoyloxy)decanoyloxy]propyl]O1-nonyl heptanedioate], under “Mouse 6, dose 0.5 mg/kg”, the “Organ Mean Total Flux Femur” value is on record as 6.3 p/s (×10^6), the “Organ Mean Total Flux Heart” value is given as 7.1 p/s (×10^6), the “Organ Mean Total Flux Kidney” value is 5.7 p/s (×10^6) and the “Organ Mean Total Flux Liver” value is recorded as 4153 p/s (×10^6). Under “Mouse 6, dose 0.5 mg/kg”, the “Organ Mean Total Flux Lung” value is listed as 28.8 p/s (×10^6), the “Organ Mean Total Flux Muscle” value is 12.1 p/s (×10^6), the “Organ Mean Total Flux Pancreas” value is 7.9 p/s (×10^6) and the “Organ Mean Total Flux Spleen” value is 10.7 p/s (×10^6).
As for `CCCC/C=C\CCOC(=O)CCCCCCC(=O)OCC(COC(=O)CCCCCCC(=O)OCC/C=C\CCCC)(COC(=O)CCCCCCC(=O)OCC/C=C\CCCC)COC(=O)CCC(CCCCCC)OC(=O)NCCN1CCCC1` (stereo not drawn) [Compound 43, O8-[2,2-bis[[8-[(Z)-oct-3-enoxy]-8-oxo-octanoyl]oxymethyl]-3-[4-(2-pyrrolidin-1-ylethylcarbamoyloxy)decanoyloxy]propyl]O1-[(Z)-oct-3-enyl]octanedioate], where the note is “Mouse 5, dose 0.5 mg/kg”, the “Organ Mean Total Flux Femur” value is given as 3.1 p/s (×10^6), the “Organ Mean Total Flux Heart” value is given as 0.7 p/s (×10^6), the “Organ Mean Total Flux Kidney” value is listed as 1.6 p/s (×10^6) and the “Organ Mean Total Flux Liver” value is given as 669.3 p/s (×10^6). For the same compound, under “Mouse 5, dose 0.5 mg/kg”, the “Organ Mean Total Flux Lung” value is given as 12.8 p/s (×10^6), the “Organ Mean Total Flux Muscle” value was 8.0 p/s (×10^6), the “Organ Mean Total Flux Pancreas” value was 2.0 p/s (×10^6) and the “Organ Mean Total Flux Spleen” value is given as 9.5 p/s (×10^6).
Regarding `CCCCCCCCC(C)OC(=O)CCCCCCC(=O)OCC(COC(=O)CCCCCCC(=O)OC(C)CCCCCCCC)(COC(=O)CCCCCCC(=O)OC(C)CCCCCCCC)COC(=O)CCC(CCCCCC)OC(=O)NCCN1CCCC1` (stereo not drawn) [Compound 39, O1-[2,2-bis[[8-(1-methylnonoxy)-8-oxo-octanoyl]oxymethyl]-3-[4-(2-pyrrolidin-1-ylethylcarbamoyloxy)decanoyloxy]propyl]O8-(1-methylnonyl) octanedioate], for the setting “Mouse 11, dose 0.5 mg/kg”, the “Organ Mean Total Flux Femur” value is recorded as 2.6 p/s (×10^6), the “Organ Mean Total Flux Heart” value is 6.5 p/s (×10^6), the “Organ Mean Total Flux Kidney” value is recorded as 2.3 p/s (×10^6) and the “Organ Mean Total Flux Liver” value is listed as 3390 p/s (×10^6). Moreover, for the setting “Mouse 11, dose 0.5 mg/kg”, the “Organ Mean Total Flux Lung” value is given as 19.6 p/s (×10^6), the “Organ Mean Total Flux Muscle” value is 11.0 p/s (×10^6), the “Organ Mean Total Flux Pancreas” value is 1.1 p/s (×10^6) and the “Organ Mean Total Flux Spleen” value was 2.9 p/s (×10^6).
With `CCCCCCCC(C)OC(=O)CCCCCC(=O)OCC(COC(=O)CCCCCC(=O)OC(C)CCCCCCC)(COC(=O)CCCCCC(=O)OC(C)CCCCCCC)COC(=O)CCC(CCCCCC)OC(=O)NCCN1CCCC1` (stereo not drawn) [Compound 38, O1-[2,2-bis[[7-(1-methyloctoxy)-7-oxo-heptanoyl]oxymethyl]-3-[4-(2-pyrrolidin-1-ylethylcarbamoyloxy)decanoyloxy]propyl]O7-(1-methyloctyl) heptanedioate], under “Mouse 6, dose 0.5 mg/kg”, the “Organ Mean Total Flux Femur” value was 9.8 p/s (×10^6), the “Organ Mean Total Flux Heart” value was 11.0 p/s (×10^6), the “Organ Mean Total Flux Kidney” value is 8.1 p/s (×10^6) and the “Organ Mean Total Flux Liver” value is 6770 p/s (×10^6). Moreover, under “Mouse 6, dose 0.5 mg/kg”, the “Organ Mean Total Flux Lung” value was 33.3 p/s (×10^6), the “Organ Mean Total Flux Muscle” value is recorded as 23.5 p/s (×10^6), the “Organ Mean Total Flux Pancreas” value is reported as 2.6 p/s (×10^6) and the “Organ Mean Total Flux Spleen” value was 27.2 p/s (×10^6).
For `CCCCCCCCCOC(=O)CCCCCCC(=O)OCC(COC(=O)CCCCCCC(=O)OCCCCCCCCC)(COC(=O)CCCCCCC(=O)OCCCCCCCCC)COC(=O)CCC(CCCCCC)OC(=O)NCCN1CCCC1` (stereo not drawn) [Compound 23, O8-[2,2-bis[(8-nonoxy-8-oxo-octanoy)oxymethyl]-3-[4-(2-pyrrolidin-1-ylethylcarbamoyloxy)decanoyloxy]propyl]O1-nonyl octanedioate], where the note is “Mouse 11, dose 0.5 mg/kg”, the “Organ Mean Total Flux Femur” value was 1.2 p/s (×10^6), the “Organ Mean Total Flux Heart” value was 2.1 p/s (×10^6), the “Organ Mean Total Flux Kidney” value is 1.2 p/s (×10^6) and the “Organ Mean Total Flux Liver” value is reported as 1727 p/s (×10^6). Under “Mouse 11, dose 0.5 mg/kg”, the “Organ Mean Total Flux Lung” value is 15.7 p/s (×10^6), the “Organ Mean Total Flux Muscle” value is given as 3.0 p/s (×10^6), the “Organ Mean Total Flux Pancreas” value is on record as 0.6 p/s (×10^6) and the “Organ Mean Total Flux Spleen” value is 1.7 p/s (×10^6).
As to `CCCCCCCCCC(C)OC(=O)CCCCCC(=O)OCC(COC(=O)CCCCCC(=O)OC(C)CCCCCCCCC)(COC(=O)CCCCCC(=O)OC(C)CCCCCCCCC)COC(=O)CCC(CCCCCC)OC(=O)NCCN1CCCC1` (stereo not drawn) [Compound 42, O1-[2,2-bis[[7-(1-methyldecoxy)-7-oxo-heptanoyl]oxymethyl]-3-[4-(2-pyrrolidin-1-ylethylcarbamoyloxy)decanoyloxy]propyl]O7-(1-methyldecyl) heptanedioate], for the setting “Mouse 5, dose 0.5 mg/kg”, the “Organ Mean Total Flux Femur” value is listed as 6.2 p/s (×10^6), the “Organ Mean Total Flux Heart” value is 1.7 p/s (×10^6), the “Organ Mean Total Flux Kidney” value is given as 1.9 p/s (×10^6) and the “Organ Mean Total Flux Liver” value is recorded as 1778 p/s (×10^6). Further, for the setting “Mouse 5, dose 0.5 mg/kg”, the “Organ Mean Total Flux Lung” value is recorded as 13.4 p/s (×10^6), the “Organ Mean Total Flux Muscle” value is given as 25.8 p/s (×10^6), the “Organ Mean Total Flux Pancreas” value is reported as 1.8 p/s (×10^6) and the “Organ Mean Total Flux Spleen” value is reported as 4.5 p/s (×10^6).
`CCCCCCCCC(C)OC(=O)CCCCCC(=O)OCC(COC(=O)CCCCCC(=O)OC(C)CCCCCCCC)(COC(=O)CCCCCC(=O)OC(C)CCCCCCCC)COC(=O)CCC(CCCCCC)OC(=O)NCCN1CCCC1` (stereo not drawn) [Compound 40, O1-[2,2-bis[[7-(1-methylnonoxy)-7-oxo-heptanoyl]oxymethyl]-3-[4-(2-pyrrolidin-1-ylethylcarbamoyloxy)decanoyloxy]propyl]O7-(1-methylnonyl)heptanedioate]: under “Mouse 6, dose 0.5 mg/kg”, the “Organ Mean Total Flux Femur” value is 10.9 p/s (×10^6), the “Organ Mean Total Flux Heart” value is on record as 6.0 p/s (×10^6), the “Organ Mean Total Flux Kidney” value is 5.1 p/s (×10^6) and the “Organ Mean Total Flux Liver” value is recorded as 3230 p/s (×10^6). Moreover, under “Mouse 6, dose 0.5 mg/kg”, the “Organ Mean Total Flux Lung” value is on record as 27.7 p/s (×10^6), the “Organ Mean Total Flux Muscle” value is 34.4 p/s (×10^6), the “Organ Mean Total Flux Pancreas” value was 4.6 p/s (×10^6) and the “Organ Mean Total Flux Spleen” value is 6.4 p/s (×10^6).
As for `CCCCCCC(CCC(=O)OCC(COC(=O)CCCCOC(=O)C(CCCC)CCCCCC)(COC(=O)CCCCOC(=O)C(CCCC)CCCCCC)COC(=O)CC12CC3CC(CC(C3)C1)C2)OC(=O)NCCN1CCCC1` (stereo not drawn) [Compound 59, [5-[2-[[2-(1-adamantyl)acetyl]oxymethyl]-2-[5-(2-butyloctanoyloxy)pentanoyloxymethyl]-3-[4-(2-pyrrolidin-1-ylethylcarbamoyloxy)decanoyloxy]propoxy]-5-oxo-pentyl]2-butyloctanoate], for the setting “Mouse 13, dose 0.5 mg/kg”, the “Organ Mean Total Flux Femur” value was 2.6 p/s (×10^6), the “Organ Mean Total Flux Heart” value is listed as 2.6 p/s (×10^6), the “Organ Mean Total Flux Kidney” value is reported as 1.5 p/s (×10^6) and the “Organ Mean Total Flux Liver” value was 1967 p/s (×10^6). Also, for the setting “Mouse 13, dose 0.5 mg/kg”, the “Organ Mean Total Flux Lung” value is listed as 9.9 p/s (×10^6), the “Organ Mean Total Flux Muscle” value is recorded as 4.7 p/s (×10^6), the “Organ Mean Total Flux Pancreas” value is 0.7 p/s (×10^6) and the “Organ Mean Total Flux Spleen” value is recorded as 2.8 p/s (×10^6).
